# Measured values: publication PMC10650955, “α-Aminophosphonate inhibitors of metallo-β-lactamases NDM-1 and VIM-2” (RSC Medicinal Chemistry, 2023)
# Where a name gives a salt, the structure may show the parent alone.
# Columns and labels:
# 15N-labelled NDM-1 = molecular target: T1, 15N-labelled NDM-1 (Klebsiella pneumoniae, UniProt C7C422); assay: 1H,15N HSQC NMR chemical shift perturbation titration, NDM-1; type: binding
# T1 construct: made in house
# Method: (§1) Solution NMR spectroscopy is a powerful tool to assess protein–ligand interactions under close to physiological conditions.[47] We, therefore, performed NMR chemical shift perturbation (CSP, for details, see section S8, ESI ^†) experiments to identify the amino acid residues of NDM-1 and VIM-2 that are involved in inhibitor binding, making use of the previously published protein assignments.[48,49] Titrations were conducted using ^15N-labelled proteins with 0, 0.5, 1, 2, 4, 8, and 16 equiv. of 5 inhibitors for NDM-1 and of 7 inhibitors for VIM-2.
# (§2) For the titrations, ^15N-labelled NDM-1 and ^15N-labelled VIM-2 (250 μM), and titrated ligands (0.5 equiv. in 1 μL) were prepared in the same buffer as the protein (20 mM KPO4, 0.1 mM ZnCl2, pH 7.0 with 10% D2O and 2.5% DMSO-d6). ^1H,^15N HSQC spectra were acquired with 128 × 1024 complex points (F1 × F2) and spectral width of 9090 × 2740 Hz on ^15N-labeled NDM-1/VIM-2 and with every titration step up to 1 : 16 ratio between protein : ligand (0, 0.5, 1, 2, 4, 8, and 16 equiv. of ligand). All experiments were recorded on a Bruker 600 MHz spectrometer at 310 K equipped with a 5 mm TCI cryogenic probe. The NMR data were processed on the MestReNova software with the Mnova Binding plugin. The weighted average chemical shift perturbations (CSP) for the backbone amides were calculated from the observed chemical shift differences in the proton and nitrogen dimensions using the equation (chemical shift scaling factors: FH = 1, FN = 0.156) CSP = Δδ1H,15N = [drawing 13] .
# (§3) 7. Chemical shift perturbation histograms
# (§4) Chemical shift perturbation was calculated according equation (1) 2
# (§5) CSP = Δδ(1H,15N) = √(Δδ1H2 + (1⁄R × Δδ15N2) Rscale = 6.5 (1)
# (§6) Where Δδ1H is the chemical shift change for proton dimension, Δδ15N is the chemical shift change for nitrogen dimension, Rscale is a
# (§7) The chemical shift perturbations (CSP) were classified as significant (SSP) when the observed Δδ(1H,15N) was greater than the population
# (§8) mean plus the standard deviation (µ+1σ) – solid line; (µ+2σ) – dashed line, and (µ+3σ) – dashed line.
# (§9) Further on, Kd was calculated according: 3
# (§10) ([P]+[L]+Kd)− √([P]+[L]+Kd)2−4[P][L]
# (§11) ΔδmaxΔδobs = Δδmax 2[P] (2)
# (§12) Where Kd is the dissociation constant, [P] and [L] are protein and ligand concentrations, respectively. Δδmax were estimated in
# (§13) MestReNova by extrapolation of the obser ved chemical shift differences Δδobs.
# 15N-labelled VIM-2 = molecular target: T2, 15N-labelled VIM-2 (Escherichia coli, UniProt Q5U7L7); assay: 1H,15N HSQC NMR chemical shift perturbation titration, VIM-2; type: binding; conditions: VIM-2 Kd, 0-16 equiv. ligand, pH 7.0, 310 K
# T2 construct: made in house
# Method: as §1, §2, §3, §4, §5, §6, §7, §8, §9, §10, §11, §12, §13
# VIM-2 = molecular target: T3, VIM-2 (Escherichia coli, UniProt Q5U7L7); assay: Dose rate inhibition studies for IC50 determination, VIM-2 enzymatic assay; type: biochemical; conditions: Enzyme IC50 VIM-2, 0.1 nM VIM-2, 100 μM ZnCl2, nitrocefin substrate, inhibitor 0-800 μM, 3 parallel measurements; N.I. = no enzyme inhibitory activity observed
# T3 construct: made in house
# In short: (§14)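 Purified enzyme (0.1 nM VIM-2 or 10 nM NDM-1) preincubated 5 min at 25 °C with inhibitor (0-800 μM) in 50 mM HEPES pH 7.2, 100 μM ZnCl2, 2.5% DMSO, 400 μg/mL BSA. Substrate at 100 μM: nitrocefin for VIM-2 (482 nm), imipenem for NDM-1 (300 nm). IC50 from initial velocities, triplicates.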
# NDM-1 = molecular target: T4, NDM-1 (Klebsiella pneumoniae, UniProt C7C422); assay: Dose rate inhibition studies for IC50 determination, NDM-1 enzymatic assay; type: biochemical; conditions: Enzyme IC50 NDM-1, 10 nM NDM-1, 100 μM ZnCl2, imipenem substrate, inhibitor 0-800 μM, 3 parallel measurements; N.I. = no enzyme inhibitory activity observed
# T4 construct: made in house
# T4 sequence (C7C422 29-270 limits assumed): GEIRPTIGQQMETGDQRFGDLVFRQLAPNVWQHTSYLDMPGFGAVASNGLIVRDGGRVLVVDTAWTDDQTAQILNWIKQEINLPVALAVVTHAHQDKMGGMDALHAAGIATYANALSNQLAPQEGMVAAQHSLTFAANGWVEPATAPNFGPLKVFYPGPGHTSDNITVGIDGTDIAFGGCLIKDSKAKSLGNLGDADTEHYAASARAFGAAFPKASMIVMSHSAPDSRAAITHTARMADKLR
# In short: as §14
# T1 sequence (C7C422 29-270 limits assumed): as above
smiles,measurement,setting,value
"O=C(NC(C1CCCCN1)P(=O)(O)O)c1ccsc1 (centres unmarked) [Compound 5c-1, (Piperidin-2-yl(thiophene-3-carboxamido)methyl)phos-phonic acid hydrochloride]",Kd,"15N-labelled NDM-1; Estimated binding constant (Kd), residue 070F, Table S5, per-residue fit, NDM-1 070F",15.2 mM
same,Kd,"15N-labelled NDM-1; Estimated binding constant (Kd), residue 091T, Table S5, per-residue fit, NDM-1 091T",4.17 mM
same,Kd,"15N-labelled NDM-1; Estimated binding constant (Kd), residue 108E, Table S5, per-residue fit, NDM-1 108E",4.5 mM
same,Kd,"15N-labelled NDM-1; Estimated binding constant (Kd), residue 119T, Table S5, per-residue fit, NDM-1 119T",10.7 mM
same,Kd,"15N-labelled NDM-1; Estimated binding constant (Kd), residue 123Q, Table S5, per-residue fit, NDM-1 123Q",1.69 mM
same,Kd,"15N-labelled NDM-1; Estimated binding constant (Kd), residue 124D, Table S5, per-residue fit, NDM-1 124D",5.76 mM
same,Kd,"15N-labelled NDM-1; Estimated binding constant (Kd), residue 127G, Table S5, per-residue fit, NDM-1 127G",10.8 mM
same,Kd,"15N-labelled NDM-1; Estimated binding constant (Kd), residue 143A, Table S5, per-residue fit, NDM-1 143A",8.49 mM
same,Kd,"15N-labelled NDM-1; Estimated binding constant (Kd), residue 149A, Table S5, per-residue fit, NDM-1 149A",1.76 mM
same,Kd,"15N-labelled NDM-1; Estimated binding constant (Kd), residue 152E, Table S5, per-residue fit, NDM-1 152E",3.85 mM
same,Kd,"15N-labelled NDM-1; Estimated binding constant (Kd), residue 159H, Table S5, per-residue fit, NDM-1 159H",11.7 mM
same,Kd,"15N-labelled NDM-1; Estimated binding constant (Kd), residue 160S, Table S5, per-residue fit, NDM-1 160S",5.4 mM
same,Kd,"15N-labelled NDM-1; Estimated binding constant (Kd), residue 188G, Table S5, per-residue fit, NDM-1 188G",15.8 mM
same,Kd,"15N-labelled NDM-1; Estimated binding constant (Kd), residue 191S, Table S5, per-residue fit, NDM-1 191S",0.48 mM
same,Kd,"15N-labelled NDM-1; Estimated binding constant (Kd), residue 194I, Table S5, per-residue fit, NDM-1 194I",6.26 mM
same,Kd,"15N-labelled NDM-1; Estimated binding constant (Kd), residue 197G, Table S5, per-residue fit, NDM-1 197G",1.51 mM
same,Kd,"15N-labelled NDM-1; Estimated binding constant (Kd), residue 205F, Table S5, per-residue fit, NDM-1 205F",3.19 mM
same,Kd,"15N-labelled NDM-1; Estimated binding constant (Kd), residue 206G, Table S5, per-residue fit, NDM-1 206G",3.95 mM
same,Kd,"15N-labelled NDM-1; Estimated binding constant (Kd), residue 211K, Table S5, per-residue fit, NDM-1 211K",10 mM
same,Kd,"15N-labelled NDM-1; Estimated binding constant (Kd), residue 213S, Table S5, per-residue fit, NDM-1 213S",9.53 mM
same,Kd,"15N-labelled NDM-1; Estimated binding constant (Kd), residue 214K, Table S5, per-residue fit, NDM-1 214K",6.4 mM
same,Kd,"15N-labelled NDM-1; Estimated binding constant (Kd), residue 217S, Table S5, per-residue fit, NDM-1 217S",11.8 mM
same,Kd,"15N-labelled NDM-1; Estimated binding constant (Kd), residue 228H, Table S5, per-residue fit, NDM-1 228H",17.9 mM
same,Kd,"15N-labelled NDM-1; Estimated binding constant (Kd), residue 229Y, Table S5, per-residue fit, NDM-1 229Y",6.74 mM
same,Kd,"15N-labelled NDM-1; Estimated binding constant (Kd), residue 230A, Table S5, per-residue fit, NDM-1 230A",11.5 mM
same,Kd,"15N-labelled NDM-1; Estimated binding constant (Kd), residue 232S, Table S5, per-residue fit, NDM-1 232S",10.2 mM
same,Kd,"15N-labelled NDM-1; Estimated binding constant (Kd), residue 248M, Table S5, per-residue fit, NDM-1 248M",36.6 mM
same,Kd,"15N-labelled NDM-1; Estimated binding constant (Kd), residue 249S, Table S5, per-residue fit, NDM-1 249S",4.15 mM
same,Kd,"15N-labelled NDM-1; Estimated binding constant (Kd), residue 251S, Table S5, per-residue fit, NDM-1 251S",15.4 mM
same,Kd,"15N-labelled NDM-1; Estimated binding constant (Kd), residue 254D, Table S5, per-residue fit, NDM-1 254D",5.56 mM
same,Kd,"15N-labelled NDM-1; Estimated binding constant (Kd), residue 255S, Table S5, per-residue fit, NDM-1 255S",10.6 mM
same,Kd,"15N-labelled NDM-1; NDM-1 Kd, NMR chemical shift perturbation, 0-16 equiv. ligand, pH 7.0, 310 K",3.1 ± 0.3 mM
same,Kd,15N-labelled VIM-2,0.4 ± 0.03 mM
same,IC50,VIM-2,0.033 ± 0.003 mM
same,IC50,NDM-1,0.219 ± 0.014 mM
